This assay concerns the target DNA ligase A (Mycobacterium tuberculosis (strain ATCC 25618 / H37Rv), UniProt P9WNV1). Description: Enzyme Assay. The source says: All assays have been carried out using procedures previously described by our group (Srivastava et al., 2005a; 2005b; 2007)

For `CC1(C)O[C@H]2OC(C(CCO)NCCCN[C@@H](CCO)C3O[C@@H]4OC(C)(C)O[C@@H]4[C@H]3OCc3ccccc3)[C@H](OCc3ccccc3)[C@H]2O1` (stereo partly specified) [Glycosylamine, 4], the IC50 was 46.2 µM.

Usually IC50 stands for the midpoint of a concentration-inhibition curve. A low value points to greater potency.
